Where two headings read alike, the source gives them in different places.
Experiments:
[1] = target: T1, CYP3A4 (Homo sapiens, UniProt P08684); experiment: Metabolic stability in human CYP3A4 Supersomes; format: in vitro ADME; settings: recombinant human CYP3A4 Supersomes, pH 7.4, human CYP3A4 Supersomes, read-out: calculated average half-life
T1 construct: purchased BD Biosciences
Protocol: (§1) Stock solutions (7.5 mM) of Compound 100 and Compound A were prepared in DMSO. The 7.5 mM stock solutions were diluted to 12.5 μM in acetonitrile (ACN). The human CYP3A4 Supersomes™ (2000 pmol/mL, purchased from BD Biosciences™) were diluted to 62.5 pmol/mL in 0.1 M potassium phosphate buffer, pH 7.4, containing 3 mM MgCl2. The diluted supersomes were added to wells of a 96-well polypropylene plate in triplicate. A 10 μL aliquot of the 12.5 μM test compound was added to the supersomes and the mixture was pre-warmed for 10 minutes. Reactions were initiated by addition of pre-warmed NADPH solution. The final reaction volume was 0.5 mL and contained 50 pmol/mL CYP3A4 Supersomes™, 0.25 μM test compound, and 2 mM NADPH in 0.1 M potassium phosphate buffer, pH 7.4, and 3 mM MgCl2. The reaction mixtures were incubated at 37° C., and 50 μL aliquots were removed at 0, 3, 7, 10, 20 and 30 minutes and added to 96-well plates which contained 125 μL of ice-cold ACN with internal standard to stop the reactions. The plates were stored at 4° C. for 20 minutes after which 75 μL of water was added to the wells of the plate before centrifugation to pellet precipitated proteins. Supernatants were transferred to another 96-well plate and analyzed for amounts of parent remaining by LC-MS/MS using an AB Sciex QTrap 5500 mass spectrometer.
(§2) The in vitro half-lives (t1/2 values) for test compounds were calculated from the slopes of the linear regression of LN (% parent remaining) vs incubation time relationship: in vitro t1/2=0.693/k, where k=−[slope of linear regression of LN (% parent remaining) vs incubation time].
as §1, with “Compound 120” for “Compound 100”, “Compound B” for “Compound A”

[2] = target: T2, human CYP3A4 Supersomes (Homo sapiens, UniProt P08684); experiment: Metabolic stability in human CYP3A4 Supersomes; format: in vitro ADME; settings: for average increase in t1/2 / apparent intrinsic clearance ratio: human CYP3A4 Supersomes; for Clint, app rCYP: human CYP3A4 Supersomes 50 pmol/mL, 0.25 μM test compound, CL int = (0.693/in vitro t1/2)(mL incubation volume/pmol P450)
T2 construct: purchased BD Biosciences
Protocol: as §1, §2
as §1, with “Compound 120” for “Compound 100”, “Compound B” for “Compound A”

[3] = tested on: patients with cystic fibrosis carrying at least one copy of the G551D-CFTR mutation; settings: phase III trials; cited from earlier work

T2 sequence (P08684 whole entry): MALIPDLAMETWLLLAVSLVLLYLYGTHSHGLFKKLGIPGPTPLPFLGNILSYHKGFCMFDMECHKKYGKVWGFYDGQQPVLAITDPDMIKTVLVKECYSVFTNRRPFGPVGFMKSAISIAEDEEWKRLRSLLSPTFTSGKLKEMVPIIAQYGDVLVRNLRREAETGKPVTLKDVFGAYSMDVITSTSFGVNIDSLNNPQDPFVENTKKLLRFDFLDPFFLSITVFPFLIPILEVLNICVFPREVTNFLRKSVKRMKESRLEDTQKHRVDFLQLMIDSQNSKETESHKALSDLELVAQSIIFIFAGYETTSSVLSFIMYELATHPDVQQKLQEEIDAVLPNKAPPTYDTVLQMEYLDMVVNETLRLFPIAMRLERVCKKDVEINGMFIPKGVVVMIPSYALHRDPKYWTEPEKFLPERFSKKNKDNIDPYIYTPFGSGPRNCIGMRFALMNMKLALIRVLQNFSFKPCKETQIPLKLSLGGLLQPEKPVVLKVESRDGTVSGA
T1 sequence (P08684 whole entry): as above

half-life at 0.25 μM ([1]; text of Example 3) | Clint, app rCYP ([2]; Table 2) | half-life at 0.25 μM ([1]; Example 4) | Clint, app rCYP ([2]; Table 3) | SMILES | other results
26.5 min | 0.26 ± 0.00 µL/min/pmol | – | – | [2H]C([2H])([2H])C(c1ccc(NC(=O)c2c[nH]c3ccccc3c2=O)cc1O)(C([2H])([2H])[2H])C([2H])([2H])[2H] [Compound 100, N-(3-Hydroxy-4-(2-(methyl-d3)propan-2-yl-1,1,1,3,3,3-d6)phenyl)-4-oxo-1,4-dihydroquinoline-3-carboxamide] | average increase in t1/2 ([2]; Compound 100 relative to Compound A): 75%; apparent intrinsic clearance ratio ([2]; ratio 100/A): 0.57; stability in Human CYP3A4 Supersomes relative to Compound A ([2]; relative to Compound A): more stable
15.1 min | 0.46 ± 0.02 µL/min/pmol | – | – | CC(C)(C)c1ccc(NC(=O)c2c[nH]c3ccccc3c2=O)cc1O [Compound A, N-(4-(tert-butyl)-3-hydroxyphenyl)-4-oxo-1,4-dihydroquinoline-3-carboxamide, reference compound] | –

The next lines start with the compound.

SMILES | half-life at 0.25 μM ([1]; text of Example 3) | Clint, app rCYP ([2]; Table 2) | half-life at 0.25 μM ([1]; Example 4) | Clint, app rCYP ([2]; Table 3) | other results
[2H]C([2H])([2H])C(c1cc(C(F)(F)F)c(NC(=O)c2c[nH]c3ccccc3c2=O)cc1O)(C([2H])([2H])[2H])C([2H])([2H])[2H] [Compound 120, N-(5-hydroxy-4-(2-(methyl-d3)propan-2-yl-1,1,1,3,3,3-d6)-2-(trifluoromethyl)phenyl)-4-oxo-1,4-dihydroquinoline-3-carboxamide] | – | – | 20.6 min | 0.34 ± 0.00 µL/min/pmol | average increase in t1/2 ([2]; Compound 120 relative to Compound B): 42%; apparent intrinsic clearance ratio ([2]; ratio 120/B): 0.71; stability in Human CYP3A4 Supersomes relative to Compound B ([2]; relative to Compound B): more stable
CC(C)(C)c1cc(C(F)(F)F)c(NC(=O)c2c[nH]c3ccccc3c2=O)cc1O [Compound B, N-(4-(tert-butyl)-5-hydroxy-2-(trifluoromethyl)phenyl)-4-oxo-1,4-dihydroquinoline-3-carboxamide, reference compound] | – | – | 14.5 min | 0.48 ± 0.06 µL/min/pmol | –
CC(C)(C)c1cc(C(C)(C)C)c(NC(=O)c2c[nH]c3ccccc3c2=O)cc1O [VX-770, N-(2,4-di-tert-butyl-5-hydroxyphenyl)-4-oxo-1,4-dihydroquinoline-3-carboxamide] | – | – | – | – | improvement in lung function and other key indicators of the disease (sweat chloride levels, likelihood of pulmonary exacerbations, body weight) [3]: marked levels of improvement

From patent publication US10759721B2, “Deuterated CFTR potentiators” (Vertex Pharmaceuticals (Europe) Limited, priority 2015, dated 2020)
